# Data from the supplement of paper PMC10307832.
# How the values were obtained:
# Assay in all cases: relative viability (nuclei count vs DMSO), 5 days (fraction); higher = more cells survive
# Crenolanib + Bortezomib = compound: CC1(COc2ccc3c(c2)ncn3-c2ccc3cccc(N4CCC(N)CC4)c3n2)COC1 [Crenolanib] + CC(C)C[C@H](NC(=O)[C@H](Cc1ccccc1)NC(=O)c1cnccn1)B(O)O [Bortezomib] (partner 0.002 µM)
# Method in brief: (§1)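 One day after seeding in 1536-well plates, lung cancer cell lines were dosed by pin tool. Dosing was either single-drug or a fixed anchor-drug dose plus five library-drug doses (not always all listed) in √10 steps. After 5 days, nuclei were stained in one fix-and-stain step and counted on 4× images, and relative viability is the nuclei count of treated wells over that of vehicle wells, given as the median of duplicate plates.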
# Crenolanib + Pictilisib = compound: CC1(COc2ccc3c(c2)ncn3-c2ccc3cccc(N4CCC(N)CC4)c3n2)COC1 [Crenolanib] + CS(=O)(=O)N1CCN(Cc2cc3nc(-c4cccc5[nH]ncc45)nc(N4CCOCC4)c3s2)CC1 [Pictilisib] (partner 1 µM)
# Method in brief: as §1
# Crenolanib + Olaparib = compound: CC1(COc2ccc3c(c2)ncn3-c2ccc3cccc(N4CCC(N)CC4)c3n2)COC1 [Crenolanib] + O=C(c1cc(Cc2n[nH]c(=O)c3ccccc23)ccc1F)N1CCN(C(=O)C2CC2)CC1 [Olaparib] (partner 8 µM)
# Method in brief: as §1
# Tivantinib + Dasatinib = compound: O=C1NC(=O)[C@@H](c2cn3c4c(cccc24)CCC3)[C@@H]1c1c[nH]c2ccccc12 [Tivantinib] + Cc1nc(Nc2ncc(C(=O)Nc3c(C)cccc3Cl)s2)cc(N2CCN(CCO)CC2)n1 [Dasatinib] (partner 0.075 µM)
# Method in brief: as §1
Cell Line,relative viability (Crenolanib + Bortezomib; first compound 0.01 µM),relative viability (Crenolanib + Bortezomib; first compound 0.03162 µM),relative viability (Crenolanib + Bortezomib; first compound 0.1 µM),relative viability (Crenolanib + Bortezomib; first compound 0.3162 µM),relative viability (Crenolanib + Bortezomib; first compound 1 µM),relative viability (Crenolanib + Pictilisib; first compound 0.01 µM),relative viability (Crenolanib + Pictilisib; first compound 0.03162 µM),relative viability (Crenolanib + Pictilisib; first compound 0.1 µM),relative viability (Crenolanib + Pictilisib; first compound 0.3162 µM),relative viability (Crenolanib + Pictilisib; first compound 1 µM),relative viability (Crenolanib + Olaparib; first compound 0.01 µM),relative viability (Crenolanib + Olaparib; first compound 0.03162 µM),relative viability (Crenolanib + Olaparib; first compound 0.1 µM),relative viability (Crenolanib + Olaparib; first compound 0.3162 µM),relative viability (Crenolanib + Olaparib; first compound 1 µM),relative viability (Tivantinib + Dasatinib; first compound 0.01 µM),relative viability (Tivantinib + Dasatinib; first compound 0.03162 µM),relative viability (Tivantinib + Dasatinib; first compound 0.1 µM),relative viability (Tivantinib + Dasatinib; first compound 0.3162 µM)
HCC-78,0.309,0.454,0.638,0.499,0.438,0.24,0.223,0.239,0.216,0.237,0.998,0.86,0.678,0.826,0.745,0.416,0.376,0.378,0.377
HCC-366,1.01,1.1,0.902,1.12,0.949,0.182,0.164,0.132,0.143,0.137,0.414,0.362,0.344,0.509,0.332,0.629,0.594,0.495,0.681
HCC-827,1.08,0.962,0.963,1.04,0.933,1.12,1.16,0.961,0.94,1.03,0.702,0.659,0.655,0.634,0.677,0.237,0.295,0.375,0.131
HOP-62,1.01,0.488,0.743,0.317,0.309,0.724,0.946,0.602,0.768,0.517,0.398,0.192,0.45,0.387,0.33,0.711,0.521,0.606,0.739
IA-LM,0.806,0.771,0.726,0.949,0.978,0.331,0.305,0.314,0.64,0.522,0.847,0.907,0.88,0.817,0.883,–,–,–,–
LC-2-ad,1.09,0.959,0.98,1.18,0.99,0.5,0.446,0.434,0.465,0.375,0.65,0.704,0.728,0.74,0.65,0.554,0.527,0.641,0.477
LCLC-97TM1,0.454,0.396,0.69,0.896,0.699,0.162,0.245,0.176,0.245,0.118,0.395,0.53,0.383,0.42,0.412,0.796,0.61,0.869,0.824
LCLC-103H,1.05,1.02,0.922,0.954,0.976,0.64,0.58,0.596,0.58,0.565,0.751,0.759,0.68,0.698,0.712,0.424,0.428,0.429,0.436
LK-2,–,–,–,–,–,0.586,0.461,0.662,0.473,0.615,0.837,0.572,0.655,1.06,0.585,0.281,–,0.341,0.301
NCI-H358,–,–,–,–,–,0.4,0.309,0.332,0.326,0.311,0.641,0.594,0.529,0.678,0.603,0.128,0.165,0.143,0.109
NCI-H522,–,–,–,–,–,–,–,–,–,–,0.581,0.676,0.639,0.591,0.62,0.902,0.712,0.831,0.864
NCI-H1299,1.04,1.02,0.968,1.04,1.03,0.793,0.825,0.657,0.878,0.795,0.965,0.921,0.916,0.978,0.935,–,–,–,–
NCI-H1395,–,–,–,–,–,0.655,0.562,0.708,0.789,0.553,0.495,0.453,0.543,0.439,0.45,0.396,0.339,0.437,0.434
NCI-H1563,0.926,0.901,0.897,0.865,0.829,0.608,0.633,0.693,0.652,0.59,–,–,–,–,–,0.453,0.443,0.514,0.399
NCI-H1648,–,–,–,–,–,–,–,–,–,–,1.08,–,0.717,0.899,0.853,–,–,–,–
NCI-H1703,0.419,0.231,0.218,0.207,0.181,0.237,0.238,0.212,0.209,0.228,0.376,0.383,0.175,0.242,0.192,–,–,–,–
NCI-H1793,–,–,–,–,–,0.302,0.315,0.322,0.312,0.385,0.993,0.947,0.889,1.13,0.762,0.345,0.419,0.376,0.346
NCI-H1944,–,–,–,–,–,0.367,0.351,0.37,0.346,0.304,0.404,0.387,0.412,0.413,0.397,0.219,0.196,0.211,0.208
NCI-H2170,–,–,–,–,–,0.376,0.296,0.32,0.272,0.305,0.608,0.674,0.54,0.711,0.671,0.659,0.469,0.558,–
NCI-H2342,–,–,–,–,–,–,–,–,–,–,0.445,0.484,0.411,0.445,0.494,0.31,0.296,0.322,0.31
SK-MES-1,–,–,–,–,–,0.337,0.33,0.375,0.385,0.377,0.759,0.705,0.682,0.791,0.674,0.521,0.386,0.309,0.186
SW 900,–,–,–,–,–,–,–,–,–,–,0.925,–,0.8,0.959,0.979,0.582,0.735,0.467,0.611
